{"source": "patent US20060276393A1", "about": "“Novel compositions for preventing and treating neurodegenerative and blood coagulation disorders” (Sirtris Pharmaceuticals, Inc., priority 2005, published 2006)", "key": {"[1]": {"tested_on": "Experimental autoimmune encephalomyelitis (EAE) in SJL/J mice", "details": "for Mean total EAE score: 30 days from day 11, vehicle 72.38; for Mean EAE Score - Last 10 Days: vehicle 23.00"}, "rDNA locus (RDN1)": {"tested_on": "rDNA locus (RDN1)", "experiment": "Ribosomal DNA recombination and silencing assays", "assay_type": "cell-based, S. cerevisiae", "description": "Pre-treated cells (RDN1::URA3) were harvested and spotted as 10-fold serial dilutions on either SC or SC with 5-fluororotic acid (5-FOA).\nRibosomal DNA silencing assays using the URA3 reporters were performed as previously described^26. Ribosomal DNA recombination frequencies were determined by plating W303AR cells^37 on YPD medium with low adenine/histidine and counting the fraction of half-red sectored colonies using Bio-Rad Quantity One software as previously described^35. At least 6000 cells were analyzed per experiment and all experiments were performed in triplicate."}, "recombinant human SIRT1": {"biological_target": "T1, recombinant human SIRT1 (Homo sapiens, UniProt Q96EB6)", "T1 sequence (Q96EB6 1-747)": "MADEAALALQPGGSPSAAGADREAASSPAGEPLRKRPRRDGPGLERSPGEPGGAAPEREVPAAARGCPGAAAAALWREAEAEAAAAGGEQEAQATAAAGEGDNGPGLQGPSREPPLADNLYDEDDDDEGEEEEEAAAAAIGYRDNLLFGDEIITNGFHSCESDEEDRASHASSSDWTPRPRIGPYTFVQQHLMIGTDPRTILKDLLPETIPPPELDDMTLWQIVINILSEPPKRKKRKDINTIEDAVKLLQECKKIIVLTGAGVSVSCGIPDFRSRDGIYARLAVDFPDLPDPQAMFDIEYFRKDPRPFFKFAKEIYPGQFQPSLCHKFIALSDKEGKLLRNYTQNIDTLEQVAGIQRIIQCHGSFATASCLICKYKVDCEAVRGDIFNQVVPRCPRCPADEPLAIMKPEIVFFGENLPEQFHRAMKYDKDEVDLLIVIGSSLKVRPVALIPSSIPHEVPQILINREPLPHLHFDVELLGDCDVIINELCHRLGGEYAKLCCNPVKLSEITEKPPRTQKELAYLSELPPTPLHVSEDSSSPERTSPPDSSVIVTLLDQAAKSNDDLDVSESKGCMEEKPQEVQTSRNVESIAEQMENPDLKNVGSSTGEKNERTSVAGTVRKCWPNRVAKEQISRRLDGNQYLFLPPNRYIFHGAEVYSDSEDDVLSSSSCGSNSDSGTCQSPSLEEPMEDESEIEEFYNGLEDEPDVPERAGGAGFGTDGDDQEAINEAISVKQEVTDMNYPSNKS", "experiment": "SIRT1 fluorescent deacetylation assay (p53-382 acetylated peptide)", "assay_type": "biochemical"}, "C. elegans": {"tested_on": "C. elegans", "experiment": "C. elegans lifespan", "assay_type": "in vivo", "method": "Thus, the presence of resveratrol in the growth media of C. elegans extends their lifespan.\nBristol N2 (Caenorhabditis Genetics Center) was used as the wild-type strain. The sir-2.1 mutant strain was generated by backcrossing VC199 (sir-2.1(ok434)) to N2 four times. Cultures were grown on standard NGM media and maintained on E. coli strain OP50. For the lifespan assays, synchronized animals were transferred to treatment plates as young adults (2 d after hatching, day 0 of assay), and were transferred to fresh treatment plates every 2 days for the first 6 to 8 days of the assay. […] For some lifespan trials, heat-killed OP50 were used as a food source. OP50 cultures were heated to 65° C. for 30 minutes, then pelleted and resuspended in 1/10 volume in S Basal supplemented with 10 mM MgSO4. In all assays, worms were monitored daily for mortality by gently probing with a platinum pick. Assays were performed at 24° C. To assay worm feeding rates, worms at the indicated stages were placed on treatment plates (no FUdR) for 4-5 hours, then videoed for 1 minute using a Pixelink PL-662 camera. The frame rate was slowed and the pumping rate of the pharynx was counted. To assay fecundity, gravid hermaphrodites (5 per plate, raised from synchronized L1s on normal or treatment plates) were allowed to lay eggs on their respective media for 5 hours, and the total number of eggs was counted."}, "[2]": {"details": "25 μM NAD+, 25 μM p53-382 acetylated peptide"}}, "note": "Read-outs that look alike come from different tables or passages of the source."}
{"compound": "Oc1ccc(/C=C/c2cc(O)cc(O)c2)cc1", "note": "[Resveratrol, 3,5,4′-Trihydroxy-trans-stilbene]", "values": [{"measurement": "clinical course", "setting": "[1]; high dose resveratrol 400 mg/kg/day", "result": "not different from controls"}, {"measurement": "peak and overall disease level", "setting": "[1]; low dose resveratrol 200 mg/kg/day", "result": "slightly higher than controls"}, {"measurement": "Mean total EAE score", "setting": "[1]; resveratrol 200 mg/kg/day IP", "result": 94.00}, {"measurement": "Mean EAE Score - Last 10 Days", "setting": "[1]; resveratrol 200 mg/kg/day IP", "result": 28.63}, {"measurement": "Mean total EAE score", "setting": "[1]; resveratrol 400 mg/kg/day IP", "result": 73.00}, {"measurement": "Mean EAE Score - Last 10 Days", "setting": "[1]; resveratrol 400 mg/kg/day IP", "result": 21.88}, {"measurement": "reduction of the frequency of rDNA recombination", "setting": "rDNA locus (RDN1); SIR2-dependent", "result": "~60", "unit": "%"}, {"measurement": "effect on rDNA silencing", "setting": "rDNA locus (RDN1); URA3 reporter, 5-FOA", "result": "only minor effects on rDNA silencing"}, {"measurement": "rDNA recombination in the presence of nicotinamide", "setting": "rDNA locus (RDN1); with Sir2 inhibitor nicotinamide", "result": "decreased"}, {"measurement": "apparent Km for NAD+ and acetylated substrate in presence of nicotinamide", "setting": "recombinant human SIRT1; 5 μM resveratrol, 50 μM nicotinamide", "result": "raised"}, {"measurement": "concentration at which the activating effect doubled the rate", "setting": "recombinant human SIRT1; [2]", "result": "~11", "unit": "µM"}, {"measurement": "concentration at which the activating effect was essentially saturated", "setting": "recombinant human SIRT1; [2]", "result": 100, "unit": "µM"}, {"measurement": "SIRT1 stimulating activity (in words)", "setting": "recombinant human SIRT1; 25 μM NAD+, 25 μM p53-382 acetylated peptide, compounds at 100 μM", "result": "most active compound overall"}, {"measurement": "effect on the two Vmax determinations", "setting": "recombinant human SIRT1; 100 μM resveratrol", "result": "no significant effect"}, {"measurement": "lowering of Km for NAD+", "setting": "recombinant human SIRT1; 100 μM resveratrol, 1 mM acetylated peptide", "result": "over 5 fold"}, {"measurement": "Vmax (+resveratrol), NAD+ varied", "setting": "recombinant human SIRT1; 100 μM resveratrol, 1 mM p53-382 acetylated peptide", "result": 1749, "unit": "AFU/min."}, {"measurement": "Vmax (+resveratrol), acetylated peptide varied", "setting": "recombinant human SIRT1; 100 μM resveratrol, 3 mM NAD+", "result": 926, "unit": "AFU/min."}, {"measurement": "decrease of acetylated peptide Km", "setting": "recombinant human SIRT1; 100 μM resveratrol, 3 mM NAD+", "result": 35, "unit": "fold"}, {"measurement": "Km for NAD+ and acetylated peptide in presence of nicotinamide", "setting": "recombinant human SIRT1; 20 and 100 μM resveratrol, 50 μM nicotinamide", "result": "lowers the Km for both NAD^+ and acetylated peptide"}, {"measurement": "Km", "setting": "recombinant human SIRT1; read-out: Km for NAD+ (+resveratrol), 100 μM resveratrol, 1 mM p53-382 acetylated peptide", "result": 101, "unit": "µM"}, {"measurement": "Km", "setting": "recombinant human SIRT1; read-out: Km for p53-382 acetylated peptide (+resveratrol), 100 μM resveratrol, 3 mM NAD+", "result": 1.8, "unit": "µM"}, {"measurement": "worms alive on day 17", "setting": "C. elegans; 50 worms strain N2, 100 μM, control 5 alive", "result": 17, "unit": "worms"}, {"measurement": "lifespan extension", "setting": "C. elegans; sir-2.1 mutants, 100 μM, heat-killed OP50, not statistically significant", "result": 5.2, "unit": "%"}, {"measurement": "lifespan extension", "setting": "C. elegans; sir-2.1 mutants, 100 μM, live OP50, P=0.81", "result": 3.3, "unit": "%"}, {"measurement": "lifespan extension", "setting": "C. elegans; wild-type N2, 100 μM, live OP50", "result": 12.6, "unit": "%"}, {"measurement": "lifespan extended (maximum)", "setting": "C. elegans; wild-type worms, 100 μM, heat-killed or live E. coli", "result": "up to 15%"}]}
